Assay results reported in article PMC8704707 (Pharmaceuticals, 2021).
In brackets after ≈: the same amount, converted by molar mass. Several values for one entry are separate records, joined by “and”; a condition that tells them apart may be missing. Equal entries are not always repeated. Where two headings read alike, the source gives them in different places.

Experiments:
Candida krusei ATCC 6258 = test: microbe, parasite or virus in culture; assay type: cell-based; details: Pichia kudriavzevii
[1] = target: BuChE from equine serum (EqBuChE) (Equus caballus, UniProt P81908); test: biochemical; details: read-out: IC50 BuChE
Chain of BuChE from equine serum (EqBuChE) (P81908 whole entry): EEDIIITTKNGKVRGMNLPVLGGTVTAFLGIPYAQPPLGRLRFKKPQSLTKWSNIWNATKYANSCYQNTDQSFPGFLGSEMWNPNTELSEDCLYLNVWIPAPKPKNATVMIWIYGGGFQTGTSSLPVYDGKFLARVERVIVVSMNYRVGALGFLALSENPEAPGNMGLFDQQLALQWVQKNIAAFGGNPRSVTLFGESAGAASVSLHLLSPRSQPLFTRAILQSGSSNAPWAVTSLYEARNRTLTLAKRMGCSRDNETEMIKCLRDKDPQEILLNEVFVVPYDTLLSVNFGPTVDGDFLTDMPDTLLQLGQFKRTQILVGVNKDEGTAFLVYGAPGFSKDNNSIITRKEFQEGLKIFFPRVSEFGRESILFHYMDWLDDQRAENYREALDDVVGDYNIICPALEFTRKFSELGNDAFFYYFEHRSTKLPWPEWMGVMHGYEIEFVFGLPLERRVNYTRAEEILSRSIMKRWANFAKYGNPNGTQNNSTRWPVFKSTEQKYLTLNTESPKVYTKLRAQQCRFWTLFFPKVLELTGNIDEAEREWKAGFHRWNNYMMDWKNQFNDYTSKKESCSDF

[2] = tested on: four Gram-positive and four Gram-negative bacterial strains; test: Antibacterial microdilution broth method, whole panel; assay type: cell-based; details: read-out: MIC, all bacterial strains tested
[3] = tested on: Candida parapsilosis ATCC 22019; test: microbe, parasite or virus in culture; assay type: cell-based; details: Lodderomyces parapsilosis
[4] = tested on: Trichophyton interdigitale ATCC 9533; test: microbe, parasite or virus in culture; assay type: cell-based
[5] = tested on: Candida albicans ATCC 24443; test: microbe, parasite or virus in culture; assay type: cell-based
[6] = tested on: Candida tropicalis ATCC 750; test: microbe, parasite or virus in culture; assay type: cell-based
[7] = target: AChE from electric eel (EeAChE) (Electrophorus electricus, UniProt O42275); test: biochemical; assay type: biochemical
Chain of AChE from electric eel (EeAChE) (O42275 24-633): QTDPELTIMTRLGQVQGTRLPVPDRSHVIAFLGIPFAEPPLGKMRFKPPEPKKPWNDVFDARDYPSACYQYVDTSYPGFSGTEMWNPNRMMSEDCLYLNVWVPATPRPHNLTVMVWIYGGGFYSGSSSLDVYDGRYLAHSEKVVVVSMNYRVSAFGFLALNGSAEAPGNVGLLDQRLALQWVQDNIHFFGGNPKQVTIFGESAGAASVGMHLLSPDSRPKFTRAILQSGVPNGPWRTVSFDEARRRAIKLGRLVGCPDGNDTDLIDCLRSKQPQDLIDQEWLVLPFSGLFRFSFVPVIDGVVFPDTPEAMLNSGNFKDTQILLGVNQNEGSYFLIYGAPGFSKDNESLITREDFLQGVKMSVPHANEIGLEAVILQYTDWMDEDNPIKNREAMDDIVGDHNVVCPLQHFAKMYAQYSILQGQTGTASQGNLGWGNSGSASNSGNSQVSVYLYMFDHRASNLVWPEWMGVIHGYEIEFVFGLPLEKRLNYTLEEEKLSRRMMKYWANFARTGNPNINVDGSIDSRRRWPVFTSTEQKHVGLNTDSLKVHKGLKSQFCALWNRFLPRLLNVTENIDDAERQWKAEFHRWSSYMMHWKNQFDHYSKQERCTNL

[8] = tested on: Acinetobacter baumannii ATCC 19606; test: Antibacterial microdilution broth method (EUCAST); assay type: cell-based
[9] = tested on: methicillin-resistant Staphylococcus aureus ATCC 43300; test: Antibacterial microdilution broth method (EUCAST); assay type: cell-based; details: ATCC 43300 / MRSA
[10] = tested on: eight human pathogenic fungi; test: Antifungal microdilution broth method, whole panel; assay type: cell-based; details: not reported in Table 2, read-out: MIC, all fungal strains tested
[11] = tested on: Escherichia coli ATCC 25922; test: Antibacterial microdilution broth method (EUCAST); assay type: cell-based
[12] = tested on: Staphylococcus epidermidis ATCC 12228; test: Antibacterial microdilution broth method (EUCAST); assay type: cell-based
[13] = tested on: Staphylococcus aureus ATCC 29213; test: Antibacterial microdilution broth method (EUCAST); assay type: cell-based
[14] = tested on: Klebsiella pneumoniae ATCC 10031; details: for MIC KP 24 h: 24 h incubation; for MIC KP 48 h: 48 h incubation
[15] = tested on: Enterococcus faecalis ATCC 29212; test: Antibacterial microdilution broth method (EUCAST); assay type: cell-based
[16] = tested on: Pseudomonas aeruginosa ATCC 27853; test: Antibacterial microdilution broth method (EUCAST); assay type: cell-based
[17] = ATCC6258, 24 h, read-out: MIC CK 24 h
[18] = ATCC6258, 48 h, read-out: MIC CK 48 h
[19] = ATCC22019, 24 h, read-out: MIC CP 24 h
[20] = ATCC22019, 48 h, read-out: MIC CP 48 h
[21] = ATCC9533, 72 h, read-out: MIC TI 72 h
[22] = ATCC9533, 120 h, read-out: MIC TI 120 h
[23] = ATCC24443, 24 h, read-out: MIC CA 24 h
[24] = ATCC24443, 48 h, read-out: MIC CA 48 h
[25] = ATCC750, 24 h, read-out: MIC CT 24 h
[26] = ATCC750, 48 h, read-out: MIC CT 48 h
[27] = mean ± SD, n = three independent experiments, BTCh 40 µM
[28] = mean ± SD, n = three independent experiments, ATCh 40 µM, read-out: IC50 AChE
[29] = ATCC19606, 24 h, read-out: MIC ACI 24 h
[30] = ATCC19606, 48 h, read-out: MIC ACI 48 h
[31] = ATCC25922, 24 h, read-out: MIC EC 24 h
[32] = ATCC25922, 48 h, read-out: MIC EC 48 h
[33] = ATCC12228, 24 h, read-out: MIC SE 24 h
[34] = ATCC12228, 48 h, read-out: MIC SE 48 h
[35] = ATCC29213, 24 h, read-out: MIC SA 24 h
[36] = ATCC29213, 48 h, read-out: MIC SA 48 h
[37] = ATCC29212, 24 h, read-out: MIC EF 24 h
[38] = ATCC29212, 48 h, read-out: MIC EF 48 h
[39] = ATCC27853, 24 h, read-out: MIC PA 24 h
[40] = ATCC27853, 48 h, read-out: MIC PA 48 h

Procedure for HepG2 cells: Cytotoxicity of the tested compounds was measured using the standard hepatic cell line HepG2. The used CellTiter 96® assay is based on the reduction of tetrazolium dye (MTS) in living cells to formazan, which is then determined colorimetrically.

In the case of `N=C(N/N=C/c1cc(I)cc(I)c1O)N/N=C/c1cc(I)cc(I)c1O` [Compound 2g, Bis[2-((E)-2-hydroxy-3,5-diiodobenzylidene)hydrazineyl]methaniminium chloride], the MIC (Candida krusei ATCC 6258; [17]) is reported as > 500 µM, the MIC (Candida krusei ATCC 6258; [18]) is reported as > 500 µM and the IC50 [1] is reported as 8.26 ± 0.21 µM. For the same compound, the MIC [2] was ≥ 500 µM, the MIC [3, 19] was > 500 µM and the MIC [3, 20] was > 500 µM. The MIC [4, 21] was 250 µM, the MIC [4, 22] was 250 µM and the MIC [5, 23] was > 500 µM. For the same compound, the MIC [5, 24] was > 500 µM, the MIC [6, 25] was > 500 µM and the MIC [6, 26] was > 500 µM. The IC50 [7] was 54.9 ± 1.72 µM.

`N=C(N)NN` [aminoguanidine, hydrazinecarboximidamide, reference compound] was tested, and the IC50 [1] was 327 ± 18 µM, the “Cytotoxicity in HepG2 in words” value (HepG2 cells) was “no significant cytotoxicity” and the “Selectivity AChE/BuChE” value [7] was 0.23. The IC50 ([7]; read-out: IC50 AChE) was 75.14 ± 0.74 µM.

With `NNC(N)=O` [semicarbazide, reference compound] the IC50 [1] was 365 ± 16.8 µM, the “Cytotoxicity in HepG2 in words” value (HepG2 cells) was “no significant cytotoxicity” and the “Selectivity AChE/BuChE” value [7] was 0.13. For the same compound, the IC50 ([7]; read-out: IC50 AChE) was 48.1 ± 0.84 µM.

With `[H]/N=C(\N)NN=Cc1cccc(Cl)c1O` [Compound 1e, (E)-2-(3-Chloro-2-hydroxybenzylidene)hydrazine-1-carboximidamide] the IC50 [1, 27] was < 20 µM and 5.57 µM, the MIC [2] was ≥ 500 µM and the IC50 [7, 28] was 46.2 ± 2.26 µM.

With `NNC(N)=S` [thiosemicarbazide, reference compound] the IC50 [1] was 327.8 ± 3.22 µM, the “Cytotoxicity in HepG2 in words” value (HepG2 cells) was “no significant cytotoxicity” and the “Selectivity AChE/BuChE” value [7] was 0.14. The IC50 ([7]; read-out: IC50 AChE) was 46.1 ± 1.1 µM.

`[H]/N=C(\N)NN=Cc1cc(I)c(O)c(I)c1` [Compound 2b, (E)-2-(4-Hydroxy-3,5-diiodobenzylidene)hydrazine-1-carboximidamide] was tested, and the MIC [8, 29] was > 500 µM, the MIC [8, 30] was > 500 µM and the MIC ([9]; 24 h, read-out: MIC MRSA 24 h) was 500 µM (≈ 215 µg/mL). For the same compound, the MIC ([9]; 48 h, read-out: MIC MRSA 48 h) was 500 µM (≈ 215 µg/mL), the IC50 [1, 27] was 46.28 ± 0.29 µM and the MIC [10] was ≥ 500 µM. For the same compound, the MIC [11, 31] was 500 µM (≈ 215 µg/mL), the MIC [11, 32] was 500 µM (≈ 215 µg/mL) and the MIC [12, 33] was 250 µM (≈ 107 µg/mL). The MIC [12, 34] was 500 µM (≈ 215 µg/mL), the MIC [13, 35] was 500 µM (≈ 215 µg/mL) and the MIC [13, 36] was 500 µM (≈ 215 µg/mL). For the same compound, the “Selectivity AChE/BuChE” value [7] was 0.87, the IC50 [7, 28] was 40.3 ± 0.85 µM and the “MIC KP 24 h” value [14] was 250 µM (≈ 107 µg/mL). For the same compound, the “MIC KP 48 h” value [14] was 250 µM (≈ 107 µg/mL), the MIC [15, 37] was 500 µM (≈ 215 µg/mL) and the MIC [15, 38] was 500 µM (≈ 215 µg/mL). For the same compound, the MIC [16, 39] was > 500 µM and the MIC [16, 40] was > 500 µM.

With `[H]/N=C(\NN=Cc1cc(I)cc(I)c1O)N[N+](=O)[O-]` [Compound 2f, (E)-2-(2-Hydroxy-3,5-diiodobenzylidene)-N-nitrohydrazine-1-carboximidamide] the IC50 [1, 27] was > 500 µM, the MIC [10] was ≥ 500 µM and the MIC [2] was ≥ 500 µM. It also gave an IC50 [7, 28] of 34.78 ± 0.04 µM.

`[H]/N=C(\N)NN=Cc1cc(Cl)cc(I)c1O` [Compound 1l, (E)-2-(5-Chloro-2-hydroxy-3-iodobenzylidene)hydrazine-1-carboximidamide] gave an MIC [8, 29] of 500 µM (≈ 169 µg/mL), an MIC [8, 30] of 500 µM (≈ 169 µg/mL) and an MIC (Candida krusei ATCC 6258; [17]) of 500 µM (≈ 169 µg/mL). For the same compound, the MIC (Candida krusei ATCC 6258; [18]) was 500 µM (≈ 169 µg/mL), the MIC ([9]; 24 h, read-out: MIC MRSA 24 h) was 250 µM (≈ 84.6 µg/mL) and the MIC ([9]; 48 h, read-out: MIC MRSA 48 h) was 250 µM (≈ 84.6 µg/mL). For the same compound, the IC50 [1, 27] was < 20 µM and 5.42 µM, the MIC [11, 31] was 250 µM (≈ 84.6 µg/mL) and the MIC [11, 32] was 250 µM (≈ 84.6 µg/mL). It also gave an MIC [3, 19] of 500 µM (≈ 169 µg/mL), an MIC [3, 20] of 500 µM (≈ 169 µg/mL) and an MIC [4, 21] of 125 µM (≈ 42.3 µg/mL). The MIC [4, 22] was 125 µM (≈ 42.3 µg/mL), the MIC [5, 23] was > 500 µM and the MIC [5, 24] was > 500 µM. It also gave an MIC [12, 33] of 250 µM (≈ 84.6 µg/mL), an MIC [12, 34] of 250 µM (≈ 84.6 µg/mL) and an MIC [6, 25] of 500 µM (≈ 169 µg/mL). The MIC [6, 26] was 500 µM (≈ 169 µg/mL), the MIC [13, 35] was 500 µM (≈ 169 µg/mL) and the MIC [13, 36] was 500 µM (≈ 169 µg/mL). For the same compound, the “Selectivity AChE/BuChE” value [7] was 4.08, the IC50 [7, 28] was 22.1 ± 0.55 µM and the “MIC KP 24 h” value [14] was 250 µM (≈ 84.6 µg/mL). The “MIC KP 48 h” value [14] was 250 µM (≈ 84.6 µg/mL), the MIC [15, 37] was 250 µM (≈ 84.6 µg/mL) and the MIC [15, 38] was 250 µM (≈ 84.6 µg/mL). The MIC [16, 39] was > 500 µM and the MIC [16, 40] was > 500 µM.
